Test results reported in patent US20250340574A1, “MODULATORS OF CYSTIC FIBROSIS TRANSMEMBRANE CONDUCTANCE REGULATOR” (Vertex Pharmaceuticals Incorporated, priority 2022, published 2025).

Target: T1, CFTR (F508del/MF-HBE cells) (Homo sapiens, UniProt P13569, DEL508-508)
T1 construct: human bronchial epithelial (HBE) cells derived from CF subjects heterozygous for F508del and a minimal function CFTR mutation (F508del/MF-HBE); endogenous in cells; host or cells: Primary human bronchial epithelial cells from CF subjects (F508del/MF genotype), differentiated at an air-liquid interface
T1 sequence (P13569 with tags, fused parts or gaps DEL508-508): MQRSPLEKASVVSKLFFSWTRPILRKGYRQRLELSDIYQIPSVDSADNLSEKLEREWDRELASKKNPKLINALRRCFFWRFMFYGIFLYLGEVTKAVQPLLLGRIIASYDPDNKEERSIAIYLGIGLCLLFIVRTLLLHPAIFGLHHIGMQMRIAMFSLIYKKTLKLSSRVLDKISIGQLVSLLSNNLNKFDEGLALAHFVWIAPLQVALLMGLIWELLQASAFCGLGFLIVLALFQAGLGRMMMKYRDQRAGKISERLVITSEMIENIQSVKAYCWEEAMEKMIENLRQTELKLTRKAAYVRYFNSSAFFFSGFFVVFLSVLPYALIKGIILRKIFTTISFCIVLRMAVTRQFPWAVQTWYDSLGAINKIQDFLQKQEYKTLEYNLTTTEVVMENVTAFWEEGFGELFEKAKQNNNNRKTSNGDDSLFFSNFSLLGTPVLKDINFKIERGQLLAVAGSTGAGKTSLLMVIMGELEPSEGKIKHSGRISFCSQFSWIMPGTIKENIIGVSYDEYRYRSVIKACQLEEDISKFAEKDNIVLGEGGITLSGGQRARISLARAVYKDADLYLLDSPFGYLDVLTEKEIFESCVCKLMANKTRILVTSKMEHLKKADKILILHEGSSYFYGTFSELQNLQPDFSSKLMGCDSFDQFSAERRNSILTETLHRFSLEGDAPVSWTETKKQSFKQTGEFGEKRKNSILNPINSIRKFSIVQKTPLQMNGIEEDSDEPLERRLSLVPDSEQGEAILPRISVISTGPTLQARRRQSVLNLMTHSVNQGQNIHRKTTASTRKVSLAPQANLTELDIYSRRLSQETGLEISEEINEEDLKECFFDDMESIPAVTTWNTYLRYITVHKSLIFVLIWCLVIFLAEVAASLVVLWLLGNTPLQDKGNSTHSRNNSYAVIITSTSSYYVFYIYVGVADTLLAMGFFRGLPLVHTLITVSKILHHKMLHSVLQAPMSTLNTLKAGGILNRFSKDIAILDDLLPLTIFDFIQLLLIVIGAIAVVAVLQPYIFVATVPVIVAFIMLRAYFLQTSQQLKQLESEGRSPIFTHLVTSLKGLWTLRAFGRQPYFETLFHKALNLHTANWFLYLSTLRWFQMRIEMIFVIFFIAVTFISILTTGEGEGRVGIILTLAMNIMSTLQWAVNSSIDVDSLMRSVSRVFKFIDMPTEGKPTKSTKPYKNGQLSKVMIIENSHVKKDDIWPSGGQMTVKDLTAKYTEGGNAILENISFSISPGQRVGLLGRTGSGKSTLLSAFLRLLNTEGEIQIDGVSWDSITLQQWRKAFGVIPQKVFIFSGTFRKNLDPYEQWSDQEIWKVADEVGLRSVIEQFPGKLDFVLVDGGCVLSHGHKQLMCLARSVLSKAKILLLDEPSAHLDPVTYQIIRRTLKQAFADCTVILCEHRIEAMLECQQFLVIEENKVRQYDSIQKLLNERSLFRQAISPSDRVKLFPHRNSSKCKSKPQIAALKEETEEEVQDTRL
Assay: Ussing chamber assay of CFTR-mediated short-circuit currents, Assay D (single concentration of 1 μM)
Assay type: cell-based
Details: with 44 nM potentiator and 18 μM Tezacaftor, 18-24 hours, 20% human serum
Description: Ussing chamber experiments were performed using human bronchial epithelial (HBE) cells derived from CF subjects heterozygous for F508del and a minimal function CFTR mutation (F508del/MF-HBE) and cultured as previously described (Neuberger T, Burton B, Clark H, Van Goor F Methods Mol Biol 2011:741:39-54). After four days the apical media was removed, and the cells were grown at an air liquid interface for >14 days prior to use.
To isolate the CFTR-mediated short-circuit (ISC) current, F508del/MF-HBE grown on Costar® Snapwell™ cell culture inserts were mounted in an Ussing chamber and the transepithelial ISC was measured under voltage-clamp recording conditions (Vhold=0 mV) at 37° C. The basolateral solution contained (in mM) 145 NaCl, 0.83 K2HPO4, 3.3 KH2PO4, 1.2 MgCl2, 1.2 CaCl2, 10 Glucose, 10 HEPES (pH adjusted to 7.4 with NaOH) and the apical solution contained (in mM) 145 NaGluconate, 1.2 MgCl2, 1.2 CaCl2, 10 glucose, 10 HEPES (pH adjusted to 7.4 with NaOH) and 30 μM amiloride to block the epithelial sodium channel. Forskolin (20 μM) was added to the apical surface to activate CFTR, followed by apical addition of a CFTR inhibitor cocktail consisting of BPO, GlyH-101, and CFTR inhibitor 172 (each at 20 μM final assay concentration) to specifically isolate CFTR currents. The CFTR-mediated ISC (μA/cm^2) for each condition was determined from the peak forskolin response to the steady-state current following inhibition.
The activity of the CFTR corrector compounds on the CFTR-mediated ISC was determined in Ussing chamber studies as described above. The F508del/MF-HBE cell cultures were either incubated with the corrector compounds at a range of concentrations in combination with 33 nM (6R,12R)-17-amino-12-methyl-6,15-bis(trifluoromethyl)-13,19-dioxa-3,4,18-triazatricyclo[12.3.1.12,5]nonadeca-1(18),2,4,14,16-pentaen-6-ol and 18 μM Tezacaftor or were incubated with the corrector compounds at a single fixed concentration of 1 μM in combination with 44 nM (6R,12R)-17-amino-12-methyl-6,15-bis(trifluoromethyl)-13,19-dioxa-3,4,18-triazatricyclo[12.3.1.12,5]nonadeca-1(18),2,4,14,16-pentaen-6-ol and 18 μM Tezacaftor for 18-24 hours at 37° C. and in the presence of 20% human serum. The concentration of corrector compounds with 44 nM or 33 nM (6R,12R)-17-amino-12-methyl-6,15-bis(trifluoromethyl)-13,19-dioxa-3,4,18-triazatricyclo[12.3.1.12,5]nonadeca-1(18),2,4,14,16-pentaen-6-ol and 18 μM Tezacaftor during the 18-24 hours incubations was kept constant throughout the Ussing chamber measurement of the CFTR-mediated ISC to ensure compounds were present throughout the entire experiment. The efficacy and potency of the putative F508del correctors was compared to that of the known Vertex corrector, (14S)-8-[3-(2-{Dispiro[2.0.2.1]heptan-7-yl}ethoxy)-1H-pyrazol-1-yl]-12,12-dimethyl-2λ^6-thia-3,9,11,18,23-pentaazatetracyclo[17.3.1.111,14.05,10]tetracosa-1(22),5,7,9,19(23),20-hexaene-2,2,4-trione, in combination with 18 μM Tezacaftor and 1 μM Ivacaftor.
• Assay A: 0.1 μM to 25 μM, 6 concentrations • Assay B: 0.00001 μM to 25 μM, 12 concentrations • Assay C: 0.026 μM to 25 μM, 6 concentrations • Assay D: Activity at single concentration of 1 μM

| SMILES | D activity at 1 μM (%) |
| --- | --- |
| Cc1cccc(C)c1-c1cc2nc(n1)NS(=O)(=O)c1cccc(c1)C(=O)N(Cc1cnc3oc(C)c(C4CC4)c3n1)[C@H](CC(C)(C)C)CO2 [Compound I-28] | +++ (+++ is >60%) |
| Cc1cccc(C)c1-c1cc2nc(n1)NS(=O)(=O)c1cccc(c1)C(=O)N(Cc1cnc3cc(C(C)C)n(C)c3n1)[C@H](CC1CCOCC1)CO2 [Compound I-29] | ++ (++ is 30-60%) |
| Cc1cccc(C)c1-c1cc2nc(n1)NS(=O)(=O)c1cccc(c1)C(=O)N(Cc1cnc3oc(C(C)C)c(C)c3n1)[C@H](CC(C)(C)F)CO2 [Compound I-48] | +++ (+++ is >60%) |
| Cc1cccc(C)c1-c1cc2nc(n1)NS(=O)(=O)c1cccc(c1)C(=O)N(Cc1cnc3oc(C(C)C)cc3n1)[C@H](CC1(C)CCC1)CO2 [Compound I-55] | +++ (+++ is >60%) |
| Cc1cccc(C)c1-c1cc2nc(n1)NS(=O)(=O)c1cccc(c1)C(=O)N(Cc1cnc3oc(C(C)C)cc3n1)[C@H](CC(C)(C)C(F)(F)F)CO2 [Compound I-60] | +++ (+++ is >60%) |
| Cc1cccc(C)c1-c1cc2nc(n1)NS(=O)(=O)c1cccc(c1)C(=O)N(Cc1nc3c(cc1F)nc(C(C)C)n3C)[C@H](COC(C)C)CO2 [Compound I-68] | +++ (+++ is >60%) |
| Cc1cccc(C)c1-c1cc2nc(n1)NS(=O)(=O)c1cccc(c1)C(=O)N(Cc1cnc3nc(C(C)C)n(C)c3n1)[C@H](CC(C)(C)C)CO2 [Compound I-73] | +++ (+++ is >60%) |
| Cc1cccc(C)c1-c1cc2nc(n1)NS(=O)(=O)c1cccc(c1)C(=O)N(Cc1cnc3oc(C(C)C)c(C#N)c3n1)[C@H](CC(C)(C)C)CO2 [Compound I-74] | +++ (+++ is >60%) |
| COC1(C[C@@H]2COc3cc(-c4c(C)cccc4C)nc(n3)NS(=O)(=O)c3cccc(c3)C(=O)N2Cc2cnc3oc(C(C)C)cc3n2)CCC1 [Compound I-76] | +++ (+++ is >60%) |
| Cc1cccc(C)c1-c1cc2nc(n1)NS(=O)(=O)c1cccc(c1)C(=O)N(Cc1nc3cc(C(C)C)oc3cc1F)[C@H](COC(C)C)CO2 [Compound I-77] | +++ (+++ is >60%) |
| Cc1cccc(C)c1-c1cc2nc(n1)NS(=O)(=O)c1cccc(c1)C(=O)N(Cc1nc3c(cc1F)nc(C(C)C)n3C)[C@H](CC1(C)CC1)CO2 [Compound I-79] | +++ (+++ is >60%) |
| Cc1cccc(C)c1-c1cc2nc(n1)NS(=O)(=O)c1cccc(c1)C(=O)N(Cc1cnc3oc(C(C)C)cc3n1)C(CC(C)(C)C1CC1)CO2 (stereo not drawn) [Compound I-105] | +++ (+++ is >60%) |
| Cc1cccc(C)c1-c1cc2nc(n1)NS(=O)(=O)c1cccc(c1)C(=O)N(Cc1cnc3cc(C(C)C)n(C)c3n1)C(CC(C)(C)C1CC1)CO2 (stereo not drawn) [Compound I-108] | +++ (+++ is >60%) |
| Cc1cccc(C)c1-c1cc2nc(n1)NS(=O)(=O)c1cccc(c1)C(=O)N(Cc1cnc3oc(C(C)C)cc3n1)[C@H](COC1CC1)CO2 [Compound I-109] | +++ (+++ is >60%) |
| Cc1cccc(C)c1-c1cc2nc(n1)NS(=O)(=O)c1cccc(c1)C(=O)N(Cc1cnc3cn(C(C)C)nc3n1)[C@H](CC(C)(C)C)CO2 [Compound I-111] | +++ (+++ is >60%) |
| Cc1cccc(C)c1-c1cc2nc(n1)NS(=O)(=O)c1cccc(c1)C(=O)N(Cc1cnc3oc(C(C)C)c(C(F)(F)F)c3n1)[C@H](CC13CC(C1)C3)CO2 [Compound I-114] | +++ (+++ is >60%) |
| Cc1cccc(C)c1-c1cc2nc(n1)NS(=O)(=O)c1cccc(c1)C(=O)N(Cc1cnc3oc(C4CC4)cc3n1)[C@H](COC1CC1)CO2 [Compound I-115] | +++ (+++ is >60%) |
| Cc1cccc(C)c1-c1cc2nc(n1)NS(=O)(=O)c1cccc(c1)C(=O)N(Cc1cnc3oc(C4CC4)cc3n1)[C@H](CC1(C)CCC1)CO2 [Compound I-116] | +++ (+++ is >60%) |
| COCCn1c(C(C)C)cc2ncc(CN3C(=O)c4cccc(c4)S(=O)(=O)Nc4nc(cc(-c5c(C)cccc5C)n4)OC[C@H]3CC(C)(C)C)nc21 [Compound I-117, (11R)-6-(2,6-dimethylphenyl)-11-(2,2-dimethylpropyl)-12-[[6-isopropyl-5-(2-methoxyethyl)pyrrolo[2,3-b]pyrazin-3-yl]methyl]-2,2-dioxo-9-oxa-2λ^6-thia-3,5,12,19-tetrazatricyclo[12.3.1.14,8]nonadeca-1(18),4(19),5,7,14,16-hexaen-13-one] | +++ (+++ is >60%) |
| Cc1cccc(C)c1-c1cc2nc(n1)NS(=O)(=O)c1cccc(c1)C(=O)N(Cc1cnc3oc(C(C)C)c(C)c3n1)[C@H](COC1CCCC1)CO2 [Compound I-119] | +++ (+++ is >60%) |
| Cc1cccc(C)c1-c1cc2nc(n1)NS(=O)(=O)c1cccc(c1)C(=O)N(Cc1cnc3oc(C(C)C)cc3n1)[C@H](COC1CCCC1)CO2 [Compound I-120] | +++ (+++ is >60%) |
| Cc1cccc(C)c1-c1cc2nc(n1)NS(=O)(=O)c1cccc(c1)C(=O)N(Cc1cnc3cc(C(C)C)n(C)c3n1)[C@H](COC1CCCC1)CO2 [Compound I-121, (11R)-11-(Cyclopentoxymethyl)-6-(2,6-dimethylphenyl)-12-[(6-isopropyl-5-methyl-pyrrolo[2,3-b]pyrazin-3-yl)methyl]-2,2-dioxo-9-oxa-2λ^6-thia-3,5,12,19-tetrazatricyclo[12.3.1.14,8]nonadeca-1(18),4(19),5,7,14,16-hexaen-13-one] | +++ (+++ is >60%) |
| Cc1cccc(C)c1-c1cc2nc(n1)NS(=O)(=O)c1cccc(c1)C(=O)N(Cc1cnc3oc(C(C)C)cc3n1)[C@H](CC1(F)CCC1)CO2 [Compound I-124] | +++ (+++ is >60%) |
| Cc1cccc(C)c1-c1cc2nc(n1)NS(=O)(=O)c1cccc(c1)C(=O)N(Cc1cnc3cc(C(C)C)n(C)c3n1)[C@H](CC1(F)CCC1)CO2 [Compound I-125] | +++ (+++ is >60%) |
| Cc1cccc(C)c1-c1cc2nc(n1)NS(=O)(=O)c1cccc(c1)C(=O)N(Cc1cnc3cn(C(C)C)nc3n1)[C@@H](CCC1(C)CC1)CO2 [Compound I-129] | +++ (+++ is >60%) |
| Cc1cccc(C)c1-c1cc2nc(n1)NS(=O)(=O)c1cccc(c1)C(=O)N(Cc1cnc3cn(C(C)C)nc3n1)[C@H](COC(C)C)CO2 [Compound I-132] | +++ (+++ is >60%) |
| Cc1cccc(C)c1-c1cc2nc(n1)NS(=O)(=O)c1cccc(c1)C(=O)N(Cc1cnc3nc(C4CC4)n(C)c3n1)[C@H](CC(C)(C)C)CO2 [Compound I-141] | +++ (+++ is >60%) |
| Cc1cccc(C)c1-c1cc2nc(n1)NS(=O)(=O)c1cccc(c1)C(=O)N(Cc1nc3cc(C(C)C)oc3nc1C(F)(F)F)[C@H](CC1(C)CC1)CO2 [Compound I-142] | +++ (+++ is >60%) |
| Cc1cccc(C)c1-c1cc2nc(n1)NS(=O)(=O)c1cccc(c1)C(=O)N(Cc1cnc3oc(C4(C)CCC4)cc3n1)[C@H](COC(C)C)CO2 [Compound I-144] | +++ (+++ is >60%) |
| Cc1cccc(C)c1-c1cc2nc(n1)NS(=N)(=O)c1cccc(c1)C(=O)N(Cc1cnc3oc(C4CC4)cc3n1)[C@H](CC(C)(C)C)CO2 (stereo partly drawn) [Compound I-148, (11R)-12-[(6-cyclopropylfuro[2,3-b]pyrazin-2-yl)methyl]-6-(2,6-dimethylphenyl)-11-(2,2-dimethylpropyl)-2-imino-2-oxo-9-oxa-2λ^6-thia-3,5,12,19-tetrazatricyclo[12.3.1.14,8]nonadeca-1(18),4(19),5,7,14,16-hexaen-13-one] | +++ (+++ is >60%) |
